The source of these data is patent EP2112152A1, “Dihydropteridinones as Plk Inhibitors” (GPC Biotech AG, priority 2008, dated 2009).

Usually IC50 stands for the midpoint of a concentration-inhibition curve.

Holding throughout (type): cell-based
One assay deals with PC-3. Briefly: SRB cell proliferation assay, PC-3. The settings on record: Homo sapiens, 18-Cell Line Panel, prostate. As for the experimental part: (§1) Cells were exposed to the test compounds at various concentrations appropriate to determine an IC50 for 72 hours. Cell proliferation was measured using the SRB assay according to Shekan et al (J Natl Cancer Inst (1990) 82, 1107-112) in order to estimate the IC50 values shown in Table 3. Briefly, cells were plated in 96 well dishes 24 hours prior to compound addition at the densities specified in Table 5.1. The assay was terminated with the addition of cold TCA to a final concentration of 10% after growth medium has been removed and the plates were incubated over night at 4°C. The plates were then washed 5 times with water and 100µl of a Sulforhodamine B solution (4%) was added to each well. The plates were then incubated for 10 minutes at room temperature before removal of unbound dye by washing with 1% acetic acid. The bound dye was solubilised with 10 mM Trizma base and the absorbance read at OD520.
(§2) Table 8.1: 18-Cell Line Panel

For another assay, the system named is SK-MEL-28. In words: SRB cell proliferation assay, SK-MEL-28. To be noted: Homo sapiens, 18-Cell Line Panel, melanoma. As to the method: as §1, §2
Another assay deals with Plk1 (Homo sapiens, UniProt P53350). Briefly: Cellular Plk1 kinase activity: nucleophosmin (B23) Ser4 phosphorylation in HCT116 cells (MSD electrochemiluminescence). Set-up: host or cells: HCT116. The settings on record: 100 ng/ml nocodazole, 4 hours after compound addition, read-out: Biochemical IC50 Nucleophosmin assay. Summed up: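 HCT116 cells arrested with 100 ng/ml nocodazole for 20 h, then compound for 4 h before lysis. Nucleophosmin Ser4 phosphorylation quantified by MSD electrochemiluminescence with cross-reactive anti-phospho-Mek1/2 antibody; % inhibition relative to cells without nocodazole, IC50 derived.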
Plk1, sequence (P53350 whole entry, species assumed): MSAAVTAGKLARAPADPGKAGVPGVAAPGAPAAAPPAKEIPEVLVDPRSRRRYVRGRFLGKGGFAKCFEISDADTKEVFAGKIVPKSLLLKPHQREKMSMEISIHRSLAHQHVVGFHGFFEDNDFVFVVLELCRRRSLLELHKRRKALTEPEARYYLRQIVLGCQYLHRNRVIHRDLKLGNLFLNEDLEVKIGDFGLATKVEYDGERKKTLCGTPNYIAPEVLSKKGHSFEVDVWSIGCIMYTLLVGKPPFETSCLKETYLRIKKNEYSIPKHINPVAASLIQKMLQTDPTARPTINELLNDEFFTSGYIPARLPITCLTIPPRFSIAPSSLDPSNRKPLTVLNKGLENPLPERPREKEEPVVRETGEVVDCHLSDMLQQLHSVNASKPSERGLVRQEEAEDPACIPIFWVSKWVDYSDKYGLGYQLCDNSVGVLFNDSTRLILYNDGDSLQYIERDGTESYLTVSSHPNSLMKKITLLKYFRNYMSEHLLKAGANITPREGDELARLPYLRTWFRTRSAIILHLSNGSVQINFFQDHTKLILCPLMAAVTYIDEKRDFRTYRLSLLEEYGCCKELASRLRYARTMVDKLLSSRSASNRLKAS

For `CCC1C(=O)N(C)c2cnc(Nc3ccc(C(=O)NC4CCN(C)CC4)cc3OC)nc2N1N(C)C` (racemic) [Compound 1, 4-(8-Dimethylamino-7-ethyl-5-methyl-6-oxo-5,6,7,8-tetrahydro-pteridin-2-ylamino)-3-methoxy-N-(1-methyl-piperidin-4-yl)-benzamide], the figures for the IC50 with PC-3, in the assay with SK-MEL-28 and at Plk1 were less than 1000 nM, more than 1000 nM and less than 100 nM, respectively.
`CCC1C(=O)N(C)c2cnc(Nc3ccc(C(=O)N[C@H]4CC[C@H](N5CCN(CC6CC6)CC5)CC4)cc3OC)nc2N1N(C)C` (relative stereo) [Compound 13, N-[trans-4-(4-Cyclopropylmethyl-piperazin-1-yl)-cyclohexyl]-4-(8-dimethylamino-7-ethyl-5-methyl-6-oxo-5,6,7,8-tetrahydro-pteridin-2-ylamino)-3-methoxy-benzamide]: the IC50 in the assay on PC-3 was less than 1000 nM; with SK-MEL-28, more than 1000 nM; at Plk1, less than 100 nM.
